Assay: xn = mol fraction of the nth substance listed
Conditions: 101.3 kPa, Liquid

CCC(C)O (stereo not given) [butan-2-ol] + CCCCCCC
mass density [kg/m3]
Conditions | 288.15 K | 293.15 K | 298.15 K | 303.15 K | 308.15 K | 313.15 K | 318.15 K | 323.15 K
x1 = 0.05 | 691.106 | 686.813 | 682.487 | 678.127 | 673.731 | 669.301 | 664.835 | 660.336
x1 = 0.1 | 694.641 | 690.325 | 685.97 | 681.576 | 677.138 | 672.659 | 668.131 | 663.562
x1 = 0.15 | 698.486 | 694.158 | 689.789 | 685.376 | 680.913 | 676.402 | 671.84 | 667.23
x1 = 0.2003 | 702.573 | 698.236 | 693.854 | 689.427 | 684.946 | 680.415 | 675.83 | 671.188
x1 = 0.3016 | 711.547 | 707.194 | 702.791 | 698.341 | 693.835 | 689.275 | 684.65 | 679.969
x1 = 0.4004 | 721.346 | 716.97 | 712.546 | 708.073 | 703.542 | 698.952 | 694.299 | 689.584
x1 = 0.5002 | 732.429 | 728.035 | 723.591 | 719.095 | 714.54 | 709.925 | 705.243 | 700.502
x1 = 0.5999 | 744.751 | 740.362 | 735.917 | 731.411 | 726.839 | 722.202 | 717.496 | 712.72
x1 = 0.65 | 751.547 | 747.174 | 742.739 | 738.239 | 733.67 | 729.03 | 724.317 | 719.533
x1 = 0.72 | 761.59 | 757.255 | 752.851 | 748.373 | 743.821 | 739.19 | 734.479 | 729.69
x1 = 0.8 | 774.103 | 769.827 | 765.479 | 761.053 | 756.541 | 751.943 | 747.257 | 742.488
x1 = 0.8499 | 782.463 | 778.238 | 773.935 | 769.552 | 765.08 | 760.519 | 755.863 | 751.116
x1 = 0.8995 | 791.187 | 787.015 | 782.767 | 778.434 | 774.01 | 769.495 | 764.879 | 760.166
x1 = 0.9501 | 800.691 | 796.583 | 792.396 | 788.125 | 783.761 | 779.299 | 774.738 | 770.073
x1 = 1 | 810.689 | 806.646 | 802.528 | 798.326 | 794.03 | 789.632 | 785.117 | 780.515

From the NIST ThermoML archive (doi:10.1021/je900715y)
